According to US20090274676A1, “COMBINATION OF DEHYDROEPIANDROSTERONE OR DEHYDROEPIANDROSTERONE-SULFATE WITH A PDE-4 INHIBITOR FOR TREATMENT OF ASTHMA OR CHRONIC OBSTRUCTIVE PULMONARY DISEASE” (priority 2003, published 2009):
Values joined by “and” are separate entries in the source; they are usually repeats but may differ in a detail not shown here. Equal entries are not always repeated. Marks after values point to notes of the source that are not given here.

How the values were obtained:
Type in all cases: physicochemical
[1] = Emitted dose studies with dry powder inhalers; conditions: for Emitted Dose (%): single runs
Procedure: DHEA-S powder was collected in Nephele tubes and assayed by HPLC. Triplicate experiments were performed at each airflow rate for each of the three dry powder inhalers tested (Rotahaler, Diskhaler and IDL's DPI devices). A Nephele tube was fitted at one end with a glass filter (Gelman Sciences, Type A/E, […]), which in turn was connected to the airflow line to collect the emitted dose of the drug from the respective dry powder inhaler being tested. A silicone adapter, with an opening to receive the mouthpiece of the respective dry powder inhaler being tested at the other end of the Nephele tube was secured. A desired airflow, of 30, 60, or 90 L/min, was achieved through the Nephele tube. Each dry powder inhaler's mouthpiece was inserted then into the silicone rubber adapter, and the airflow was continued for about four s after which the tube was removed and an end-cap screwed onto the end of each tube. The end-cap of the tube not containing the filter was removed and 10 ml of an HPLC grade water-acetonitrile solution (1:1) added to the tube, the end-cap reattached, and the tube shaken for 1-2 minutes. The end-cap then was removed from the tube and the solution was transferred to a 10 ml plastic syringe fitted with a filter (Cameo 13N Syringe Filter, Nylon, 0.22 μm). An aliquot of the solution was directly filtered into an HPLC vial for later drug assay via HPLC. […] When the micronized DHEA-S (only vial B used), was weighed for placement into the gelatin capsule or blister, there appeared to be a few aggregates of the micronized powder. […] Table 2 summarizes the results for the Rotahaler experiments at 3 different flow rates, for the Diskhaler experiments at 3 different flow rates, and of the multi-dose experiments at 3 different flow rates.

[2] = Respirable dose studies, Andersen cascade impactor; conditions: 90 L/min
Procedure: The respirable dose (respirable fraction) studies were performed using a standard sampler cascade impactor (Andersen), consisting of an inlet cone (an impactor pre-separator was substituted here), 9 stages, 8 collection plates, and a backup filter within 8 aluminum stages held together by 3 spring clamps and gasket O-ring seals, where each impactor stage contains multiple precision drilled orifices. When air is drawn through the sampler, multiple jets of air in each stage direct any airborne particles toward the surface of the collection plate for that stage. The size of the jets is constant for each stage, but is smaller in each succeeding stage. Whether a particle is impacted on any given stage depends upon its aerodynamic diameter. The range of particle sizes collected on each stage depends upon on the jet velocity of the stage, and the cut-off point of the previous stage. Any particle not collected on the first stage follows the air stream around the edge of the plate to the next stage, where it is either impacted or passed on to the succeeding stage, and so on, until the velocity of the jet is sufficient for impaction. To prevent particle bounce during the cascade impactor test, the individual impactor plates were coated with a hexane-grease (high vacuum) solution (100:1 ratio). As noted above, the particle size cut-off points on the impactor plates changed at different airflow rates. […] The set-up recommended by the United States Pharmacopeia for testing dry powder inhalers consists of a mouthpiece adapter (silicone in this case) attached to a glass throat (modified 50 ml round-bottom flask) and a glass distal pharynx (induction port) leading top the pre-separator and Andersen sampler. The pre-separator sample includes washings from the mouthpiece adaptor, glass throat, distal glass pharynx and pre-separator. 5 ml acetonitrile:water (1:1 ratio) solvent was placed in the pre-separator before performing the cascade impactor experiment, that were performed in duplicate with 3 different dry powder inhaler devices and at 3 airflow rates, 30, 60 and 90 L/min. The drug collected on the cascade impactor plates were assayed by the HPLC, and a drug mass balance was performed for each Diskhaler and multi-dose cascade impactor experiment consisting of determining the amount of drug left in the blister, the amount of drug remaining in the device (Diskhaler only), the non-respirable amount of the dose retained on the silicone rubber mouth piece adaptor, glass throat, glass distal pharynx and pre-separator, all combined into one sample, and the respirable dose, i.e. Stage 2 through filter impactor plates for airflow rates of 30 and 60 L/min and Stages 1 through filter impactor plates for 90 L/min experiments.
The cascade impactor experiments were conducted as described in Example 3. Four cascade impactor experiments were done, three with a IDL multi-dose device and one with a Diskhaler, all at 90 L/min. […] However, the % respirable dose was still low. This was likely the result of moisture absorption of the anhydrous form.

[3] = Particle size of jet-milled / spray-dried anhydrous DHEA-S (Malvern Mastersizer X, light microscope); conditions: for Mean particle size: spray dried, two batches
Procedure: Approximately 1 g sample was passed through the jet mill, once, and approximately 2 g sample were passed through the jet mill twice. […] The resulting solution was sonicated for 3 minutes and appeared fully dispersed. The dispersed solutions were tested on a Malvern Mastersizer X with a small volume sampler (SVS) attachment. One sample of dispersed material was tested 5 times. The median particle size or D (v, 0.5) of unmilled material was 52.56 μm and the % RSD (relative standard deviation) was 7.61 for the 5 values. The D (v, 0.5) for a single pass through the jet mill was 3.90 μm and the % RSD was 1.27, and the D (v, 0.5) from a double pass through the jet mill 3.25 μm and the % RSD was 3.10.
The solution was spray-dried with a B-191 Mini Spray-Drier (Buchi, Flawil, Switzerland) with an inlet temperature of 55° C., outlet temperature of 40° C., at 100% aspirator, at 10% pump, nitrogen flow at 40 mbar and spray flow at 600 units. The spray-dried product was suspended in hexane and Span85 surfactant added to reduce agglomeration. The dispersions were sonicated with cooling for 3-5 minutes for complete dispersion and the dispersed solutions tested on a Malvern Mastersizer X with a Small Volume Sampler (SVS) attachment. […] Visual examination by light microscope of the dispersions of each batch confirmed that spray drying produced small respirable size particles. The mean particle size was 2.4 μm and 2.0 μm for each batch, respectively.

[4] = Diskhaler (2nd study), 87.8 L/min
[5] = IDL Multi-Dose (2nd study), 87.8 L/min
[6] = Multi-dose, oven dried drug for 80 minutes
[7] = Multi-dose, oven dried drug for 20 hours

C[C@]12CC[C@H](OS(=O)(=O)[O-])CC1=CC[C@@H]1[C@@H]2CC[C@]2(C)C(=O)CC[C@@H]12.[Na+] [Anhydrous DHEA-S]
Emitted Dose (%), Average [1, 4]: 59.1%
Emitted Dose (%) [1, 4]: 57.9% and 59.9% and 59.5%
Emitted Dose (%), Average ([1]; Diskhaler, 30 L/min): 58.6%
Emitted Dose (%) ([1]; Diskhaler, 30 L/min): 53.8% and 53.4% and 68.7%
Emitted Dose (%), Average ([1]; Diskhaler, 60 L/min): 68.2%
Emitted Dose (%) ([1]; Diskhaler, 60 L/min): 63.4% and 38.9% and 58.0%
Emitted Dose (%), Average ([1]; Diskhaler, 87.8 L/min): 51.3%
Emitted Dose (%) ([1]; Diskhaler, 87.8 L/min): 65.7% and 41.6% and 46.5%
Emitted Dose (%), Average [1, 5]: 84.8%
Emitted Dose (%) [1, 5]: 85.7% and 84.6% and 84.0%
Emitted Dose (%), Average ([1]; IDL Multi-Dose, 30 L/min): 85.4%
Emitted Dose (%) ([1]; IDL Multi-Dose, 30 L/min): 78.9% and 88.2% and 89.2%
Emitted Dose (%), Average ([1]; IDL Multi-Dose, 60 L/min): 84.0%
Emitted Dose (%) ([1]; IDL Multi-Dose, 60 L/min): 78.8% and 83.7% and 89.6%
Emitted Dose (%), Average ([1]; IDL Multi-Dose, 87.8 L/min): 72.6%
Emitted Dose (%) ([1]; IDL Multi-Dose, 87.8 L/min): 71.3% and 79.0% and 67.4%
Emitted Dose (%), Average ([1]; Rotahaler (2nd study), 87.8 L/min): 31.5%
Emitted Dose (%), Average ([1]; Rotahaler, 30 L/min): 34.7%
Emitted Dose (%), Average ([1]; Rotahaler, 60 L/min): 57.3%
Emitted Dose (%) ([1]; Rotahaler, 60 L/min): 58.1% and 68.2% and 45.7%
Emitted Dose (%), Average ([1]; Rotahaler, 87.8 L/min): 69.7%
Emitted Dose (%) ([1]; Rotahaler, 87.8 L/min): 73.2% and 67.1% and 68.7%
Respirable dose of spray-dried compared to micronized anhydrous DHEA-S [2]: two-fold increase
Blister (%) [2, 6]: 2.8%
Preseparator (%) [2, 6]: 78.7%
Respirable Dose (%) [2, 6]: 4.6%
Device (%) ([2]; Multi-dose, oven dried drug for 80 minutes, obtained by difference): 13.9*^a %
Blister (%) [2, 7]: 5.0%
Preseparator (%) [2, 7]: 55.9%
Respirable Dose (%) [2, 7]: 1.2%
Device (%) ([2]; Multi-dose, oven dried drug for 20 hours, obtained by difference): 37.9*^a %
Blister (%) ([2]; jet-milled drug, Diskhaler): 6.6% and 10.1%
Device (%) ([2]; jet-milled drug, Diskhaler): 22.1% and 13.3%
Preseparator (%) ([2]; jet-milled drug, Diskhaler): 72.7% and 60.2%
Respirable Dose (%) ([2]; jet-milled drug, Diskhaler): 2.9% and 2.4%
Blister (%) ([2]; jet-milled drug, Multi-dose): 3.8% and 3.9%
Preseparator (%) ([2]; jet-milled drug, Multi-dose): 73.3% and 65.8%
Respirable Dose (%) ([2]; jet-milled drug, Multi-dose): 3.6% and 3.8%
Device (%) ([2]; jet-milled drug, Multi-dose, obtained by difference): 19.3*^a % and 26.5*^a %
Blisters (%) ([2]; spray-dried drug, Diskhaler): 29.0%
Device (%) ([2]; spray-dried drug, Diskhaler): 11.2%
Preseparator (%) ([2]; spray-dried drug, Diskhaler): 56.8%
Respirable Dose (%) ([2]; spray-dried drug, Diskhaler): 5.6%
Median particle size D (v, 0.5) ([3]; double pass through the jet mill): 3.25 μm
Median particle size D (v, 0.5) ([3]; single pass through the jet mill): 3.90 μm
Mean particle size ([3]; Malvern Mastersizer X): 5.07±0.70 μm and 6.66±0.91 μm
Mean particle size ([3]; visual examination by light microscope): 2.4 μm and 2.0 μm
Median particle size D (v, 0.5) ([3]; unmilled material): 52.56 μm
